Measured values taken from patent US20220281835A1, “PHENOL DERIVATIVES FOR USE AS ANTIMICROBIAL, ANTIBACTERIAL, BACTERICIDE” (SPECIAL PRODUCT'S LINE S.P.A., priority 2019, published 2022).
Values after ≈ are worked out from the molar mass of the structure shown.

Key:
[1] = system: S. Aureus strain 1 (collection) mec a+; assay: MIC/MBC broth-dilution (micromethod), CLSI; format: cell-based; conditions: Staphylococcus aureus; for MBC: kills 99,9% of initial population
Description: (§1) Determination of Minimal Inhibitory Concentration (MIC), Minimal Bactericidal Concentration (MBC), bactericidal curves and killing rate on Gram positive and Gram negative bacteria strains, for the evaluation of the bactericidal activity of compounds of example 1 (n. 1 to 14).
(§2) In details, phenotypic methods based on in vitro MIC and MBC determination have been performed on previously isolated bacterial strains, identified and characterized at the level of their antibiotic susceptibility profile. According to MIC and MBC data, the Killing Rate was calculated as the ratio between MBC and MIC on which basis it is possible to define the compounds tested as bactericides (killing rate=1-4), or bacteriostatic (killing rate >4).
(§3) Preparation of the solution containing molecules: for each molecule to be tested, solutions were made as DMSO Stock, with a concentration of 2.560 mg/ml, used to test 12 dilutions with the following scalar drug concentrations: 512-256-128-64-32-16-8-4-2-1-0.5-0.25 μg/ml. The scalar dilutions were prepared directly on plates by using Mueller Hinton Broth (MHB) as a solvent.
Bacterial suspension preparation: cryostrains preserved at −80° C. were recovered by incubation in growth medium (Brain Heart Infusion Broth, BHI) for 24-48 hours at 37° C. followed by passages in agar growth medium (Columbia Blood Agar). Colonies with less than 30 hours are suspended in MHB with the purpose to prepare a bacterial suspension with a turbidity of 0.5 MF, containing approximately 1.5×10^8 cfu/ml. This injection is additionally diluted in MHB until reaching a final concentration of 5×10^5 cfu/ml (range 3-7×10^5 cfu/ml). Identical volumes of this bacterial suspension are added on a plate, for each well containing drug scalar dilutions, to obtain a final concentration between 512 a 0.25 μg/ml. The set up of bacterial suspensions as well as the passage on slate has always been performed within 30 minutes, in order not to alter the concentration of the bacterial suspension. Simultaneously, check in broth-microdilution only with solvent (in order to exclude that the effect of growth inhibition might be due to the drug solution solvent), positive growth control in absence of DMSO and drug, and negative purity control only with injection broth are performed. As a consequence the slate is incubated at 37° C. for 24 and 48 hours in aerobes. […] The same observations are valid to evaluate 48 hours MIC. After the incubation, an equal volume of bacterial suspension from each well is plated on agar growth medium and incubated for 24-48 hours at a temperature of 37° C. in aerobes, in order to define the MBC after the incubation.
Bacterial strains: the bactericidal and/or bacteriostatic power of the synthesized compounds can be determined by using standard reference strains such as: • 1. S. Aureus ATCC 25923 res kan, tob, res streptogramine (sga-sgb, efflux), res mupirocina (at low level), res trimetoprim; • 2. S. Aureus strain 1 (collection) mec a+, res kan tob gen, res quinolones, lincosamides, res streptogramine (sga-sgb), mlsb+sa constituent, mlsb constituent, res mupirocine (low level), res trimetoprim; • 3. S. Aureus strain 2 (collection) acquired penicillinase, res kan tob, res streptogramine (sga-sgb, efflux), res mupirocine (low level), res trimetoprim; • 4. Enterococcus faecalis ATCC 51299 (str+gen res at high level, mlsb res, simil van b res); • 5. Enterococcus faecalis strain 1 (collection) (str+kan res at high level str res at high level tetracycline res); • 6. Enterococcus faecalis strain 2 (collection) (kan res at high level); • 7. E. coli of Collection: RESISTANT to ampicilline, amox+ac clav, ampicillinr+sulbactam, cefalexine, cefuroxime, cefuroxime axetil, cefixime, cefpodoxime, cefotaxime, ceftazidime, ceftriaxone, netilmicine, tobramicine, ciprofloxcine, trim/sulfametox, esbl pos, SENSITIVE to meropenem and gentamicine, INTERMEDIATE to amikacine; • 8. 8.

[2] = system: A. baumannii of collection; assay: MIC/MBC broth-dilution (micromethod), CLSI; format: cell-based; conditions: Acinetobacter baumannii
Description: as §1
as §2, with “Sensitivity tests have been performed in broth-dilution (micromethod) with the purpose to test the possible bacteriostatic and/or bactericidal power in different compounds, in accordance with CLSI guidelines (Clinical and Laboratory Standards Institute). In” for “In”
as §3
(§4) Bacterial suspension preparation: cryostrains preserved at −80° C. were recovered by incubation in growth medium (Brain Heart Infusion Broth, BHI) for 24-48 hours at 37° C. followed by passages in agar growth medium (Columbia Blood Agar). Colonies with less than 30 hours are suspended in MHB with the purpose to prepare a bacterial suspension with a turbidity of 0.5 MF, containing approximately 1.5×10^8 cfu/ml. This injection is additionally diluted in MHB until reaching a final concentration of 5×10^5 cfu/ml (range 3-7×10^5 cfu/ml). Identical volumes of this bacterial suspension are added on a plate, for each well containing drug scalar dilutions, to obtain a final concentration between 512 a 0.25 μg/ml. The set up of bacterial suspensions as well as the passage on slate has always been performed within 30 minutes, in order not to alter the concentration of the bacterial suspension. Simultaneously, check in broth-microdilution only with solvent (in order to exclude that the effect of growth inhibition might be due to the drug solution solvent), positive growth control in absence of DMSO and drug, and negative purity control only with injection broth are performed. As a consequence the slate is incubated at 37° C. for 24 and 48 hours in aerobes. The 24 hours MIC is considered as the minimum drug concentration able to inhibit bacterial growth, which makes it possible to observe the absence of bacterial growth and the absence of turbidity. The same observations are valid to evaluate 48 hours MIC. After the incubation, an equal volume of bacterial suspension from each well is plated on agar growth medium and incubated for 24-48 hours at a temperature of 37° C. in aerobes, in order to define the MBC after the incubation. The MBC is evaluated as the minimum concentration of drug able to kill the 99,9% of the initial bacterial population.
(§5) Bacterial strains: the bactericidal and/or bacteriostatic power of the synthesized compounds can be determined by using standard reference strains such as: • 1. S. Aureus ATCC 25923 res kan, tob, res streptogramine (sga-sgb, efflux), res mupirocina (at low level), res trimetoprim; • 2. S. Aureus strain 1 (collection) mec a+, res kan tob gen, res quinolones, lincosamides, res streptogramine (sga-sgb), mlsb+sa constituent, mlsb constituent, res mupirocine (low level), res trimetoprim; • 3. S. Aureus strain 2 (collection) acquired penicillinase, res kan tob, res streptogramine (sga-sgb, efflux), res mupirocine (low level), res trimetoprim; • 4. Enterococcus faecalis ATCC 51299 (str+gen res at high level, mlsb res, simil van b res); • 5. […]

E. coli of Collection = assay: MIC/MBC broth-dilution (micromethod), CLSI; format: cell-based; conditions: Escherichia coli
Description: as §1
as §2, with “Sensitivity tests have been performed in broth-dilution (micromethod) with the purpose to test the possible bacteriostatic and/or bactericidal power in different compounds, in accordance with CLSI guidelines (Clinical and Laboratory Standards Institute). In” for “In”
as §3, §4, §5

[3] = system: Enterococcus faecalis ATCC 51299; assay: MIC/MBC broth-dilution (micromethod), CLSI; format: cell-based; conditions: for MBC: ATCC51299, E. FAECALIS ATCC 51299, kills 99,9% of initial population; for MIC: ATCC51299, E. FAECALIS ATCC 51299, values without asterisk
Description: as §1
as §2, with “Sensitivity tests have been performed in broth-dilution (micromethod) with the purpose to test the possible bacteriostatic and/or bactericidal power in different compounds, in accordance with CLSI guidelines (Clinical and Laboratory Standards Institute). In” for “In”
as §3, §4, §5

[4] = system: Enterococcus faecalis strain 1 (collection); assay: MIC/MBC broth-dilution (micromethod), CLSI; format: cell-based; conditions: for MBC: E. FAECALIS strain 1, kills 99,9% of initial population
Description: as §1
as §2, with “Sensitivity tests have been performed in broth-dilution (micromethod) with the purpose to test the possible bacteriostatic and/or bactericidal power in different compounds, in accordance with CLSI guidelines (Clinical and Laboratory Standards Institute). In” for “In”
as §3, §4, §5

[5] = system: Enterococcus faecalis strain 2 (collection); assay: MIC/MBC broth-dilution (micromethod), CLSI; format: cell-based; conditions: for MBC: E. FAECALIS strain 2, kills 99,9% of initial population
Description: as §1
as §2, with “Sensitivity tests have been performed in broth-dilution (micromethod) with the purpose to test the possible bacteriostatic and/or bactericidal power in different compounds, in accordance with CLSI guidelines (Clinical and Laboratory Standards Institute). In” for “In”
as §3, §4, §5

[6] = system: P. Aeruginosa of collection; assay: MIC/MBC broth-dilution (micromethod), CLSI; format: cell-based; conditions: Pseudomonas aeruginosa
Description: as §1
as §2, with “Sensitivity tests have been performed in broth-dilution (micromethod) with the purpose to test the possible bacteriostatic and/or bactericidal power in different compounds, in accordance with CLSI guidelines (Clinical and Laboratory Standards Institute). In” for “In”
as §3, §4, §5

S. Aureus ATCC 25923 = assay: MIC/MBC broth-dilution (micromethod), CLSI; format: cell-based; conditions: Staphylococcus aureus; for MBC: ATCC25923, kills 99,9% of initial population
Description: as §1
as §2, with “Sensitivity tests have been performed in broth-dilution (micromethod) with the purpose to test the possible bacteriostatic and/or bactericidal power in different compounds, in accordance with CLSI guidelines (Clinical and Laboratory Standards Institute). In” for “In”
as §3, §4, §5

[7] = system: S. Aureus strain 2 (collection); assay: MIC/MBC broth-dilution (micromethod), CLSI; format: cell-based; conditions: Staphylococcus aureus; for MBC: kills 99,9% of initial population; for MIC: values without asterisk
Description: as §1
as §2, with “Sensitivity tests have been performed in broth-dilution (micromethod) with the purpose to test the possible bacteriostatic and/or bactericidal power in different compounds, in accordance with CLSI guidelines (Clinical and Laboratory Standards Institute). In” for “In”
as §3, §4, §5

[8] = marked *: MIC value read at 48 hours
[9] = E. FAECALIS strain 2, marked *: MIC value read at 48 hours

Row | MIC [5, 9] | SMILES | MBC [1] | MIC [1, 8] | MIC [2] | MIC (E. coli of Collection) | MBC [3] | MIC [3] | MBC [4] | MBC [5] | MIC [6] | MBC (S. Aureus ATCC 25923) | MBC [7] | MIC [7] | also measured
1 | – | CC(C)(C)ON=Cc1cc(C=CC(=O)O)ccc1-c1ccc(O)c(C23CC4CC(CC(C4)C2)C3)c1 [Compound 12, 3-[3′-Adamantan-1-yl-4′hydroxy-2-tert-butoxyiminomethyl-biphenyl-4-yl]-acrylic acid] | 4 µg/mL (≈ 8.45 µM) | 2 to 4 µg/mL (≈ 4.22 to 8.45 µM) | 128 µg/mL (≈ 270 µM) | 256 µg/mL (≈ 541 µM) | 8 µg/mL (≈ 16.9 µM) | 2 µg/mL (≈ 4.22 µM) | 8 µg/mL (≈ 16.9 µM) | 4 µg/mL (≈ 8.45 µM) | 256 µg/mL (≈ 541 µM) | 4 µg/mL (≈ 8.45 µM) | 2 µg/mL (≈ 4.22 µM) | 2 µg/mL (≈ 4.22 µM) | MIC ([4]; E. FAECALIS strain 1, values without asterisk): 2 µg/mL (≈ 4.22 µM); MIC ([5]; E. FAECALIS strain 2, values without asterisk): 2 µg/mL (≈ 4.22 µM); MIC (S. Aureus ATCC 25923; ATCC25923, values without asterisk): 2 µg/mL (≈ 4.22 µM)
2 | 0.5 to 1 µg/mL (≈ 1.29 to 2.57 µM) | C/C(=C\c1ccc(-c2ccc(O)c(C34CC5CC(CC(C5)C3)C4)c2)cc1)C(=O)O [Compound 3, E-2-Methyl-3-[3′-(adamantan-1-yl)-4′-hydroxybiphenyl-4-yl]acrylic Acid] | 4 to 8 µg/mL (≈ 10.3 to 20.6 µM) | – | – | – | – | – | – | 8 µg/mL (≈ 20.6 µM) | – | – | – | – | MIC ([1]; values without asterisk): 2 µg/mL (≈ 5.15 µM); melting point: 200 °C
3 | 0.5 to 1 µg/mL (≈ 1.34 to 2.67 µM) | O=C(O)/C=C/c1ccc(-c2ccc(O)c(C34CC5CC(CC(C5)C3)C4)c2)cc1 [adarotene, reference compound] | 16 µg/mL (≈ 42.7 µM) | 4 to 8 µg/mL (≈ 10.7 to 21.4 µM) | 128 µg/mL (≈ 342 µM) | 256 µg/mL (≈ 684 µM) | 32 µg/mL (≈ 85.5 µM) | 2 µg/mL (≈ 5.34 µM) | 32 µg/mL (≈ 85.5 µM) | 16 µg/mL (≈ 42.7 µM) | 256 µg/mL (≈ 684 µM) | 16 µg/mL (≈ 42.7 µM) | 8 µg/mL (≈ 21.4 µM) | 4 µg/mL (≈ 10.7 µM) | MBC ([2]; kills 99,9% of initial population): 512 µg/mL (≈ 1370 µM); MIC ([4]; E. FAECALIS strain 1, marked *: MIC value read at 48 hours): 2 to 4 µg/mL (≈ 5.34 to 10.7 µM); MIC (S. Aureus ATCC 25923; ATCC25923, marked *: MIC value read at 48 hours): 4 to 8 µg/mL (≈ 10.7 to 21.4 µM)
